Measurements published in patent US5326770A, “Monoamine oxidase-B (MAO-B) inhibitory 5-substituted 2,4-thiazolidinediones useful in treating memory disorders of mammals” (priority 1992, dated 1994).

Tests used:
[1] = target: T1, MAO-A (Rattus norvegicus, UniProt P21396); assay: Monoamine oxidase-A (MAO-A) inhibition assay; format: biochemical; conditions: Table II
T1 construct: Both Forms of Monoamine Oxidase in the Rat Brain; from tissue
T1 sequence (P21396 1-526): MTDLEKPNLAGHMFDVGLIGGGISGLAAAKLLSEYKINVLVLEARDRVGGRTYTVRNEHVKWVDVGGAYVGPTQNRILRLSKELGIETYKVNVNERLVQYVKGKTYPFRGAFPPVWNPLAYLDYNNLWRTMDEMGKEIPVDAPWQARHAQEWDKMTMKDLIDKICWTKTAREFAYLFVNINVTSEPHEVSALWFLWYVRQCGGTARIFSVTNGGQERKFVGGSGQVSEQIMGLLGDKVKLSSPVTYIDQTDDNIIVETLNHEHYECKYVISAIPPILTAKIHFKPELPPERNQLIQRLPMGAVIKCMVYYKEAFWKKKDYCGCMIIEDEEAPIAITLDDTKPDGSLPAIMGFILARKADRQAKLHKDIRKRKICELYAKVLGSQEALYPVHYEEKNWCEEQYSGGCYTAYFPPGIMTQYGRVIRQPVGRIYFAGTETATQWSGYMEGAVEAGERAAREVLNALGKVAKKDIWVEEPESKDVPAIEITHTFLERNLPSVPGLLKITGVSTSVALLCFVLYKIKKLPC

[2] = target: T2, MAO-B (Rattus norvegicus, UniProt P19643); assay: Monoamine oxidase-B (MAO-B) inhibition assay; format: biochemical; conditions: for IC50: Table II; for Ratio A/B: ratio of MAO-A IC50 to MAO-B IC50
T2 construct: Both Forms of Monoamine Oxidase in the Rat Brain; from tissue
T2 sequence (P19643 1-520): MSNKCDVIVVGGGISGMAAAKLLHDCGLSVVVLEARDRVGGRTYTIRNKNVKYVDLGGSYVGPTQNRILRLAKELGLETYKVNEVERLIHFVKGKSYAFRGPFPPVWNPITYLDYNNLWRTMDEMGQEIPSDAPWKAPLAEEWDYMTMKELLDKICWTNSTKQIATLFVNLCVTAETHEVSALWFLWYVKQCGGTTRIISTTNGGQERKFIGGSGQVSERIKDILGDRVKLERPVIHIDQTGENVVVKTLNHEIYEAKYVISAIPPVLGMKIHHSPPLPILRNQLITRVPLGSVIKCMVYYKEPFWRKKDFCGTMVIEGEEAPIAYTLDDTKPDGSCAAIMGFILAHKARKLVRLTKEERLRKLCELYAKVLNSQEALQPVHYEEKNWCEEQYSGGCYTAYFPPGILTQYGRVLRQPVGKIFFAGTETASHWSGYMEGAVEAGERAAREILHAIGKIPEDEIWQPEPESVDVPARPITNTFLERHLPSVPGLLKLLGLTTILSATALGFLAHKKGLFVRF

[3] = AMPT test (ED50); format: in vivo; conditions: Table II; method not described

## O=C1NC(=O)C(=Cc2ccc(OCCc3ccccc3)cc2)S1 [Example 4, 5-[4-(2-Phenylethoxy)phenylmethylene]-2,4-thiazolidinedione]
[1]
  IC50: 30 µM
[2]
  IC50: 0.1 µM
  Ratio A/B: > 300

## N#CCN1C(=O)SC(=Cc2ccc(OCCc3ccccc3)cc2)C1=O [Example 5, 2,4-Dioxo-5-[4-(2-phenylethoxy)phenylmethylene]-3-thiazolidineacetonitrile]
[1]
  IC50: 30 µM
[2]
  IC50: 2 µM
  Ratio A/B: 15

## N#CCCCCN1C(=O)SC(=Cc2cccc(OCc3ccccc3)c2)C1=O [Example 3]
[1]
  IC50: > 1000 µM
[2]
  IC50: 0.7 µM
  Ratio A/B: > 1428

## CCCCCCOc1ccc(CC2SC(=O)NC2=O)cc1 (stereo not shown) [Example 6, 5-[(4-Hexyloxyphenyl)methyl]-2,4-thiazolidinedione]
[1]
  IC50: 10 µM
[2]
  IC50: 0.1 µM
  Ratio A/B: 100
[3]
  ED50: 6.71 mg/kg

## N#CCCCN1C(=O)SC(=Cc2ccc(OCc3cccc(Cl)c3)cc2)C1=O [Example 9]
[1]
  IC50: 30 µM
[2]
  IC50: 100 µM
  Ratio A/B: < 1

## O=C1NC(=O)C(=Cc2cccc(OCc3ccccc3)c2)S1 [Example 1, 5-[3-(Phenylmethoxy)phenylmethyl-ene]-2,4-thiazolidinedione]
[1]
  IC50: 100 µM
[2]
  IC50: 100 µM
  Ratio A/B: 1

## O=C1NC(=O)C(=Cc2ccc(OCc3cccc(Cl)c3)cc2)S1 [Example 8, 5-{4-[(3-Chlorophenyl)methoxy]phenylmethylene}-2,4-thiazolidinedione]
[1]
  IC50: > 100 µM
[2]
  IC50: 30 µM
  Ratio A/B: > 3

## O=C1NC(=O)C(Cc2ccc(OCC34CC5CC(CC(C5)C3)C4)cc2)S1 (stereo not shown) [Example 7, 5-[4-(3-Adamantylmethoxy)phenylmethyl]-2,4-thiazolidinedione]
[1]
  IC50: 30 µM
[2]
  IC50: 0.1 µM
  Ratio A/B: 300

## N#CCCCN1C(=O)SC(=Cc2cccc(OCc3ccccc3)c2)C1=O [Example 2, 2,4-Dioxo-5-[3-(phenylmethoxy)-phenylmethylene]-4-thiazolidinebutanenitrile]
[1]
  IC50: > 5000 µM
[2]
  IC50: 0.1 µM
  Ratio A/B: > 50000
